# Reference: a melting point compilation (Tetko et al.; mined from patent text by program, amines drawn as free bases though some values may be those of a salt)
row,melting point [°C],SMILES
1,230 to 232,O=C(Nc1cnc2c(c1)CCN2)c1cc2cc(F)ccc2n1Cc1cccc(F)c1
2,154 to 156,Nc1c(CC(=O)O)cc(Cl)cc1Oc1ccccc1F
3,120 to 122,CNc1ccc(C(=O)OC)c(OC)n1
4,274 to 275,C=Cc1cc(O)cc2nc(-c3ccc(O)cc3F)oc12
5,70,CN(Cc1ccccc1)C1c2ccccc2CCCC1O (stereo unspecified)
6,125 to 127,COC(=O)c1nc(N(C)C)ccc1Oc1nc(OC)cc(OC)n1
7,178 to 180,CN(C)S(=O)(=O)c1ccc(-c2ccc(N)cc2)cc1
8,97 to 98,O=C1C=C(Br)C(=CBr)O1
9,168 to 172,CCOC(=O)C(Cc1ccc(C(N)=S)cc1)(NC(C)=O)C(=O)OCC
10,108,NC(=O)C(N)CC(=O)N[C@@H]1CN2C(=O)N(c3cc(Cl)nc(Cl)c3)C(=O)[C@@]2(Cc2ccc(OC(F)(F)F)cc2)C1 (stereo partly specified)
11,210 to 213,CC(=O)Nc1cc(Oc2ccc3c(C(=O)Nc4ccc(CN5CCN(C(C)C)CC5)c(C(F)(F)F)c4)cccc3c2)ncn1
12,240 to 242,O=C1C(=O)c2ccc(-c3cccnc3)cc2C2=C1SCC1(CCN(C(=O)c3cccc(Cl)c3)CC1)O2
13,134 to 137,CCOc1cnc2nc(S(=O)(=O)Cl)nn2c1
14,165 to 167,COC(=O)Nc1ccc(CN2OCC(C)(C)C2=O)c(Cl)c1
15,174 to 175,N#Cc1ccc2c(c1)C[C@H](NS(=O)(=O)c1ccccc1)CN2C(=O)c1ccccc1
16,90 to 93,Cc1cnc(-c2c(F)cccc2F)nn1
17,144 to 145,CCOC(=O)c1c(O)c(Br)c(Br)n1-c1ccccc1
18,70 to 73,COc1cccc(NCc2sccc2S(=O)(=O)Nc2onc(C)c2Br)c1
19,53 to 55,CCCCCCCCCCCCCCCNC(=O)OCCOCCOC(=O)N(Cc1ccccn1)C(C)=O
20,114,COC(=O)c1cc(S(=O)(=O)c2ccc(C)cc2)cc(OC)c1OC
21,157 to 158,O=c1c2ccccc2oc2cc(OCC3CO3)ccc12 (stereo unspecified)
22,114 to 116,O=C(CN(C(=O)OCc1ccccc1)c1ccc(Cl)cc1)NCCc1ccc(OCc2ccccc2)c(OCc2ccccc2)c1
23,213 to 218,COc1c(C(C)(C)C)cc(COc2ccc(C=C3SC(=S)NC3=O)cc2)cc1C(C)(C)C
24,145 to 146,O=C(NCCCO)c1cccc(-c2ccc3c(n2)N(Cc2ccc(Cl)cc2Cl)CC3)c1
25,326 to 329,CN1CCN(c2ccc3c4c(cccc24)C(=O)N(O)C3=O)CC1

row,melting point [°C],SMILES
1,59 to 62,COc1cccc(NC(NC(C)C(C)(C)C)=C(C#N)S(=O)(=O)C(C)C)c1 (stereo unspecified)
2,161 to 162,CCCn1c(=O)c2c(nc(/C=C/c3ccco3)n2C)n(CCC)c1=O
3,180,CCCn1nc(SCCCCCCC(=O)O)c(C(=O)O)c1Cc1cc2c(cc1Cl)OCO2
4,113 to 115,CCC(CC)c1ccc(Cl)c2nc3n(c12)CCCCN3c1ccc(SC)cc1C
5,80 to 82,CCCCCS(=O)(=O)NCC(C)Cc1ccc(OCCOC)cc1Oc1ncc(C(F)(F)F)cc1Cl (stereo unspecified)
6,154 to 155,N#CCC1(C#N)CCC(=O)CC1
7,222,O=C(N[C@H]1CC[C@H](CCN2CCN(c3nccc4c3OCC4)CC2)CC1)c1ccnc2ccccc12
8,117 to 120,CN1C(=O)N(CCC(NS(=O)(=O)c2ccc(-c3ccc(Cl)cc3)cc2)C(=O)NO)C(=O)C1(C)C (stereo unspecified)
9,49 to 50,CCCCCCCCCCOc1cc(OCCCCCCCCCC)cc(C(=O)C(=O)OC)c1
10,247,COc1ccc(Cn2c(N)c(Br)c(=O)[nH]c2=O)cc1
11,207 to 208,CCc1cc2[nH]ccc(=O)c2c(CC)n1
12,97 to 98,CCOC(=O)C1CCCN(CCC2CCc3cc(OCc4ccc(-c5ccccc5)cc4)ccc3C2)C1 (stereo unspecified)
13,103 to 104,COc1ccc(N2CCN(CCC3CN(C)C(=O)O3)CC2)cc1 (stereo unspecified)
14,239 to 241,Oc1ncc(-c2ccccc2)cn1
15,165 to 166,CC1=C(C(=O)OC(C)C)C(c2cccc([N+](=O)[O-])c2)N(C(=O)N(C)C)C(=O)N1 (stereo unspecified)
16,> 300,CC1(n2cc(C(=O)O)c(=O)c3cc(F)c(N4CCC(N)C4)c(F)c32)CC1 (stereo unspecified)
17,150 to 152,CCNc1nc2n(n1)Cc1ccccc1-2
18,129,COc1cc(OC)c(C)c(C(=O)OCC(Cl)(Cl)Cl)c1C
19,177,O=C(NCCC(F)(F)F)c1nc(Cl)c(Cl)[nH]1
20,201 to 203,CCc1c(C)c2ccc(O)cc2oc1=O
21,> 260,NC(=Nc1ccc(CCNC(=O)c2cc(N)ccc2O)cc1)c1cccs1
22,147 to 149,CCCN(CCC(=O)Nc1c(SC)nc(C)nc1N(CC)CC)c1ccccc1
23,123 to 125,COc1ccc2c(c1)CCC(C1CCC(O)C1(C)CC(C)(C)O)C2 (stereo unspecified)
24,244 to 246,O=C(O)COc1cccc(CCc2nc(-c3ccccc3)c(-c3ccccc3)[nH]2)c1
25,226 to 228,CC(C)n1nc(-c2sc(Nc3cccnc3)nc2-c2ccccc2)ccc1=O

row,melting point [°C],SMILES
1,51 to 53,C=CCSc1nnc(OC)c(C)c1C
2,174 to 175,CC(=O)c1ccc(NC2=Nc3ccc(Cl)cc3CS2)cc1
3,144 to 158,CN1CCC(=O)C(C2c3ccccc3C=Cc3ccccc32)C1 (stereo unspecified)
4,183 to 185,CC(C#N)c1cc(O)cc2cc(-c3ccc(O)cc3)oc12 (stereo unspecified)
5,250 to 251,COc1cc2c(Oc3ccc4[nH]c(C)cc4c3)ncnc2cc1OCC1CCN(C)C(=O)C1 (stereo unspecified)
6,100,Cc1c(-c2ncncc2Cl)ssc1=S
7,159 to 161,COc1ccc(N2CCN(c3c(C)c(C)c4c(c3C)C(c3cccc(C)c3)C(C)(C)O4)CC2)cc1 (stereo unspecified)
8,147,CCO/C(=C\c1ccc(OCCc2ccc(OS(C)(=O)=O)cc2)c(OC)c1)C(=O)O
9,113,CN(C)S(=O)(=O)Nc1cccc(-c2cccc(-c3nc(-c4ccc(C(F)(F)F)cc4)cc(C(F)(F)F)n3)c2)c1
10,100 to 103,O=C(Nc1ccc(F)cc1)c1ccccn1
11,73 to 74,Cc1cc(C)c2c(c1C)OCC2c1cccc(Br)c1 (stereo unspecified)
12,152 to 153,CC(C)Oc1c(-c2ccc(S(C)(=O)=O)cc2)cnn(CC(F)(F)F)c1=O
13,137 to 138,COc1cccc(CN2Cc3cc(OC)c(O)cc3C(O)C2)c1 (stereo unspecified)
14,129 to 130,CNCc1csc(-c2cccc(C3=Nc4cc(N(C)C)c(Cl)cc4NC(=O)C3)c2)n1
15,115 to 116,COC(=O)[C@H](CC(=O)OC(C)(C)C)NC(=O)c1cccc(NC(=O)OCc2ccccc2)c1
16,198 to 200,CCn1ncc2c3ncn(Cc4ccccc4)c(=O)c3cnc21
17,88 to 89,CCOC(=O)/C(=C\Nc1ccc(OC)c(OC)c1)c1ccc(OC)cc1
18,144 to 146,COCc1cccc2oc(C(=O)Nc3ccc(-c4ccc(S(=O)(=O)N(C)C(C(=O)O)C(C)C)cc4)cc3)c(C)c12 (stereo unspecified)
19,106 to 116,CC(=O)Nc1ccc(Cl)cc1C(=O)c1c(F)cccc1F
20,193,CNc1cc(Cl)cc(NC)c1[N+](=O)[O-]
21,113 to 114,COC(=O)C1CN(C(=O)c2cc(OC)c(OC)c(OC)c2)CCN1 (stereo unspecified)
22,87,CCC(O)(CC)c1ccc(-c2cccc(COc3ccc(CO)c(CO)c3)c2)c(C)c1
23,184,COc1ccc(-c2cncc(OC3SCC(O)C(O)C3O)c2)c(OC)c1 (stereo unspecified)
24,65 to 67,CC(O)CN1C(=O)N(CC(C)O)C(C)(C)C1=O (stereo unspecified)
25,189 to 190,OCCN1CCN(c2ccc(Nc3ncc4ccc(-c5cccnc5)n4n3)cc2)CC1

row,melting point [°C],SMILES
1,200 to 202,O=C1OC(c2cccc(C(F)(F)F)c2)=NC1=Cc1cccs1
2,190 to 194,COC(=O)N[C@H](C(=O)N[C@@H](Cc1ccccc1)[C@H](O)CN1C[C@H]2CCCC[C@H]2C[C@H]1C(=O)NC(C)(C)C)C(C)(C)S(C)(=O)=O
3,122 to 123,O=C(Oc1ccc(F)cc1)Oc1ccc(F)cc1
4,241 to 243,COc1ccc(C#N)cc1-c1cc(-c2cccc(C#N)c2)on1
5,198 to 200,Nc1nonc1-c1nc2ccccc2n1CC(=O)c1ccc(Cl)c([N+](=O)[O-])c1
6,156 to 158,COc1ccc(CNC(=O)C(=O)NCCc2ccccn2)cc1
7,114 to 116,Oc1cccc2ccc3ccccc3c12
8,123 to 124,COc1ccc2c(c1)cc(C=O)n2S(=O)(=O)c1ccccc1
9,203 to 205,Sc1nccc(-c2ccccc2)n1
10,131 to 132,N#CC(c1ccc(Cl)cc1)N(Cc1ccccc1)C(=O)C(F)(F)F (stereo unspecified)
11,160 to 162,CCCN(CCC)S(=O)(=O)c1cccc(C(=O)Nc2ccc(Br)cc2)c1
12,130 to 132,CN(Cc1cc2c(=O)c(C(=O)NCc3ccc(Cl)cc3)cn(C)c2o1)CC(O)c1ccccn1 (stereo unspecified)
13,113 to 115,Fc1cc2ccc(CBr)nc2cc1F
14,160,CC(C)(C)NS(=O)(=O)c1ccc(C(=O)c2ccc(F)cc2)cc1
15,142 to 143,c1cc(NC2=NCCN2)ccc1Cc1cc(OC2CCCC2)cs1
16,340,N#Cc1c(N)oc2ccc(Cl)cc2c1=O
17,138 to 140,Cc1cc2c(S(C)(=O)=O)nc(OCC(F)(F)F)nc2s1
18,212,CCOCc1nc2c(N)nc3cc(-c4ccc(F)cc4)cnc3c2n1CC1(O)CCCC1
19,138,CN(C)n1c(C(F)(F)F)n[nH]c1=O
20,237 to 238,Cc1ccccc1-c1c(NC(=O)Nc2c(C)cccc2C(C)C)c(=O)oc2ccc(Cl)cc12
21,30 to 32,CCCCCCCCCCOc1ccc(C(=O)OCC(=O)OC)cc1
22,60 to 62,Nc1sc2c(c1C(=O)c1ccc(Cl)cc1)CCN(C(=O)OCc1ccccc1)C2
23,84 to 85,CSCc1nnc(-c2ccc3occ(-c4cccc(OC(F)(F)F)c4)c3c2)o1
24,99 to 101,CCOC(=O)COc1c(C)cc(C(O)(C(F)(F)F)C(F)(F)F)cc1C

row,SMILES,melting point [°C]
1,CCOC(=O)c1ncn2c1CN=C(c1ccccc1)c1cc(Br)ccc1-2,210 to 212
2,O=CC(Br)c1ccc(Cl)cc1 (stereo unspecified),178
